{
  "source": "patent US20220280661A1",
  "about": "“GLUCOCORTICOID RECEPTOR RADIOLIGANDS AND METHODS FOR THEIR PREPARATION AND USE” (The Regents of the University of California, priority 2019, published 2022)",
  "key": {"[1]": {"assay": "Post mortem biodistribution of [18F]-YJH08 at 30, 60, 90 min", "assay_type": "in vivo, mouse", "settings": "C57B16/J mice", "method": "For a broader survey of radiotracer biodistribution post mortem, mice were euthanized after radiotracer injection with CO2(g) asphyxiation and dissected at dedicated time points post injection. The blood and tissues were removed, washed, dried and weighed. The activity of each tissue was measured with a gamma counter. All data was decay corrected. PRISM software was used to express a percentage (% ID/g) of the injected dose per gram of tissue. […] Table 2 provides a tabular representation of the biodistribution data collected 30, 60, 90 minutes after injection of [18F]-YJH08 in C57B16/J mice. The data are represented as mean standard deviation of the % ID/g."}, "ER": {"target": "T1, ER (Homo sapiens, UniProt P03372)", "T1 construct": "MCF7 (PR, ER); endogenous in cells; host or cells: MCF7", "T1 sequence (P03372 1-595)": "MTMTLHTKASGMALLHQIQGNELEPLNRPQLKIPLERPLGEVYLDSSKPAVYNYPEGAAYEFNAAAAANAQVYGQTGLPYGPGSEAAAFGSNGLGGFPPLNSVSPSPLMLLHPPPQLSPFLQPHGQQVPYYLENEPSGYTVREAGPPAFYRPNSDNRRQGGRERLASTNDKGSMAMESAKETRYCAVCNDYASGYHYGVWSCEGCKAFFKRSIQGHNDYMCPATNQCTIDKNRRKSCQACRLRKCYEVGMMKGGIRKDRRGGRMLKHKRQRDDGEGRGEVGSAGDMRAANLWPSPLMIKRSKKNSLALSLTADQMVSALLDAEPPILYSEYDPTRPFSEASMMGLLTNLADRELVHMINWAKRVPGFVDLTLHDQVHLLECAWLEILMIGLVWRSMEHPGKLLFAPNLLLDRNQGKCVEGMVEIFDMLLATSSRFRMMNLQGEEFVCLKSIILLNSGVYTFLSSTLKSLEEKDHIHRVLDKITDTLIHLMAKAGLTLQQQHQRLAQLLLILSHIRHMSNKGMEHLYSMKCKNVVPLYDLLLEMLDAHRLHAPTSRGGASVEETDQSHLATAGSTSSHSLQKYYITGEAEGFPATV", "assay": "3H-ligand displacement assay on cells, ER (MCF7)", "assay_type": "binding", "method": "The affinity of YJH08 for GR and the other type 1 subfamily 3 nuclear hormone receptors was evaluated using ^3H-ligand displacement assays on cells. The Kd for subfamily 3 class C nuclear hormone receptors was determined on cells by displacing ^3H-steroidal agonists for the respective receptor. […] The Kd was determined using the following cell lines: DU145 (GR), LNCaP-AR (AR), MCF7 (PR, ER), and HEK293 transiently overexpressing full length human MR.\nThe cold ligands and ^3H-steroids were co-incubated on cells in PBS at room temperature for one hour. Following incubation, the cells were washed twice with ice cold PBS and the unbound activity was retained for analysis. The cells were lysed with 1 mL of 1M NaOH and collected. Bound and unbound fractions were counted in a liquid scintillation counter and expressed as a percentage of the total activity added per equal relative number of cells. […] These experiments were performed at three concentrations of experimental ligand (1 pM, 100 nM and 10 μM), and a linear extrapolation was used to subtract the non-specific component of binding from each treatment condition. The specific binding component was plotted against the log of the competing ligand and curve fit using a non-linear regression algorithm with PRISM software."}},
  "data": [
    {"smiles": "COc1cccc2c1-c1ccc3c(c1C(Cc1ccc([18F])cc1)O2)C(C)=CC(C)(C)N3", "note": "(racemic) [[18F]-YJH08, [^18F]-5-(4-fluorobenzyl)-10-methoxy-2,2,4-trimethyl-2,5-dihydro-1H-chromeno[3,4-f]quinoline]", "values": [
      {"measurement": "radiotracer uptake, Adrenal Gland", "setting": "[1]; 30 min after injection", "value": "20.02 ± 2.21", "unit": "% ID/g"},
      {"measurement": "radiotracer uptake, Blood", "setting": "[1]; 30 min after injection", "value": "0.85 ± 0.1", "unit": "% ID/g"},
      {"measurement": "radiotracer uptake, Bone", "setting": "[1]; 30 min after injection", "value": "1.11 ± 0.15", "unit": "% ID/g"},
      {"measurement": "radiotracer uptake, Brain", "setting": "[1]; 30 min after injection", "value": "1.68 ± 0.14", "unit": "% ID/g"},
      {"measurement": "radiotracer uptake, Heart", "setting": "[1]; 30 min after injection", "value": "3.04 ± 0.75", "unit": "% ID/g"},
      {"measurement": "radiotracer uptake, Kidney", "setting": "[1]; 30 min after injection", "value": "4.5 ± 0.5", "unit": "% ID/g"},
      {"measurement": "radiotracer uptake, Large intestine", "setting": "[1]; 30 min after injection", "value": "1.33 ± 0.35", "unit": "% ID/g"},
      {"measurement": "radiotracer uptake, Liver", "setting": "[1]; 30 min after injection", "value": "11.03 ± 0.89", "unit": "% ID/g"},
      {"measurement": "radiotracer uptake, Lung", "setting": "[1]; 30 min after injection", "value": "2.65 ± 0.19", "unit": "% ID/g"},
      {"measurement": "radiotracer uptake, Muscle", "setting": "[1]; 30 min after injection", "value": "1.49 ± 0.2", "unit": "% ID/g"},
      {"measurement": "radiotracer uptake, Pancreas", "setting": "[1]; 30 min after injection", "value": "4.5 ± 0.15", "unit": "% ID/g"},
      {"measurement": "radiotracer uptake, Small intestine", "setting": "[1]; 30 min after injection", "value": "19.05 ± 3.27", "unit": "% ID/g"},
      {"measurement": "radiotracer uptake, Spleen", "setting": "[1]; 30 min after injection", "value": "1.59 ± 0.13", "unit": "% ID/g"},
      {"measurement": "radiotracer uptake, Stomach", "setting": "[1]; 30 min after injection", "value": "1.88 ± 0.96", "unit": "% ID/g"},
      {"measurement": "radiotracer uptake, Supraspinal BAT", "setting": "[1]; 30 min after injection", "value": "14.41 ± 3.42", "unit": "% ID/g"},
      {"measurement": "radiotracer uptake, Adrenal Gland", "setting": "[1]; 60 min after injection", "value": "9.43 ± 0.08", "unit": "% ID/g"},
      {"measurement": "radiotracer uptake, Blood", "setting": "[1]; 60 min after injection", "value": "0.57 ± 0.02", "unit": "% ID/g"},
      {"measurement": "radiotracer uptake, Bone", "setting": "[1]; 60 min after injection", "value": "0.61 ± 0.15", "unit": "% ID/g"},
      {"measurement": "radiotracer uptake, Brain", "setting": "[1]; 60 min after injection", "value": "1.33 ± 0.06", "unit": "% ID/g"},
      {"measurement": "radiotracer uptake, Heart", "setting": "[1]; 60 min after injection", "value": "1.33 ± 0.21", "unit": "% ID/g"},
      {"measurement": "radiotracer uptake, Kidney", "setting": "[1]; 60 min after injection", "value": "2.35 ± 0.34", "unit": "% ID/g"},
      {"measurement": "radiotracer uptake, Large intestine", "setting": "[1]; 60 min after injection", "value": "1.23 ± 0.43", "unit": "% ID/g"},
      {"measurement": "radiotracer uptake, Liver", "setting": "[1]; 60 min after injection", "value": "7.7 ± 0.69", "unit": "% ID/g"},
      {"measurement": "radiotracer uptake, Lung", "setting": "[1]; 60 min after injection", "value": "2.02 ± 0.29", "unit": "% ID/g"},
      {"measurement": "radiotracer uptake, Muscle", "setting": "[1]; 60 min after injection", "value": "1.15 ± 0.03", "unit": "% ID/g"},
      {"measurement": "radiotracer uptake, Pancreas", "setting": "[1]; 60 min after injection", "value": "2.63 ± 0.05", "unit": "% ID/g"},
      {"measurement": "radiotracer uptake, Small intestine", "setting": "[1]; 60 min after injection", "value": "8.61 ± 2.68", "unit": "% ID/g"},
      {"measurement": "radiotracer uptake, Spleen", "setting": "[1]; 60 min after injection", "value": "0.83 ± 0.02", "unit": "% ID/g"},
      {"measurement": "radiotracer uptake, Stomach", "setting": "[1]; 60 min after injection", "value": "1.63 ± 0.92", "unit": "% ID/g"},
      {"measurement": "radiotracer uptake, Supraspinal BAT", "setting": "[1]; 60 min after injection", "value": "16.4 ± 4.93", "unit": "% ID/g"},
      {"measurement": "radiotracer uptake, Adrenal Gland", "setting": "[1]; 90 min after injection", "value": "5.72 ± 2.32", "unit": "% ID/g"},
      {"measurement": "radiotracer uptake, Blood", "setting": "[1]; 90 min after injection", "value": "0.49 ± 0.06", "unit": "% ID/g"},
      {"measurement": "radiotracer uptake, Bone", "setting": "[1]; 90 min after injection", "value": "0.58 ± 0.16", "unit": "% ID/g"},
      {"measurement": "radiotracer uptake, Brain", "setting": "[1]; 90 min after injection", "value": "0.97 ± 0.03", "unit": "% ID/g"},
      {"measurement": "radiotracer uptake, Heart", "setting": "[1]; 90 min after injection", "value": "0.92 ± 0.14", "unit": "% ID/g"},
      {"measurement": "radiotracer uptake, Kidney", "setting": "[1]; 90 min after injection", "value": "1.86 ± 0.26", "unit": "% ID/g"},
      {"measurement": "radiotracer uptake, Large intestine", "setting": "[1]; 90 min after injection", "value": "6.67 ± 4.73", "unit": "% ID/g"},
      {"measurement": "radiotracer uptake, Liver", "setting": "[1]; 90 min after injection", "value": "8.43 ± 1.38", "unit": "% ID/g"},
      {"measurement": "radiotracer uptake, Lung", "setting": "[1]; 90 min after injection", "value": "1.39 ± 0.1", "unit": "% ID/g"},
      {"measurement": "radiotracer uptake, Muscle", "setting": "[1]; 90 min after injection", "value": "0.85 ± 0.18", "unit": "% ID/g"},
      {"measurement": "radiotracer uptake, Pancreas", "setting": "[1]; 90 min after injection", "value": "1.9 ± 0.41", "unit": "% ID/g"},
      {"measurement": "radiotracer uptake, Small intestine", "setting": "[1]; 90 min after injection", "value": "7.67 ± 2.34", "unit": "% ID/g"},
      {"measurement": "radiotracer uptake, Spleen", "setting": "[1]; 90 min after injection", "value": "0.74 ± 0.15", "unit": "% ID/g"},
      {"measurement": "radiotracer uptake, Stomach", "setting": "[1]; 90 min after injection", "value": "2.61 ± 1.54", "unit": "% ID/g"},
      {"measurement": "radiotracer uptake, Supraspinal BAT", "setting": "[1]; 90 min after injection", "value": "14.58 ± 1.91", "unit": "% ID/g"}
    ]},
    {"smiles": "COc1cccc2c1-c1ccc3c(c1C(Cc1ccc(F)cc1)O2)C(C)=CC(C)(C)N3", "note": "(racemic) [YJH08, 5-(4-fluorobenzyl)-10-methoxy-2,2,4-trimethyl-2,5-dihydro-1H-chromeno[3,4-f]quinoline]", "values": [
      {"measurement": "Kd", "setting": "ER", "value": 19, "unit": "µM"}
    ]}
  ]
}
